Patent EP0340171A2, “Cyclodextrin complexes of 5-aminohexahydropyrimidine compounds” (WARNER-LAMBERT COMPANY, priority 1988, dated 1989)
Entries after “also recorded” stand apart in the source; their conditions may differ.

Columns and labels:
[1] = solubility in deionized water; format: physicochemical
Method: When complexed with beta-cyclodextrin the solubility increases to about 10 mg hexetidine (contained in about 43 mg of complex) in about 10 ml of water -- without the addition of any alcohol or any surfactant. This is an increase from about 0 to about 0.1% w/v in solubility. The complex, 43 mg, was dissolved in 10 ml of deionized water at about 50°C using vortexing. The complex, assayed by UV to be a 1:1 complex of hexetidine: beta-cyclodextrin, contains 10 mg of hexetidine in the 43 mg of complex, and therefore, a 0.1% w/v solution of hexetidine was made. The solution of the 43 mg of complex in 10 ml of water was clear.

[2] = cited from earlier work

- solubility (hexetidine in aqueous solution) ([1]; water, no ethanol and no surfactant): about 0 % w/v
Structure (SMILES): CCCCC(CC)CN1CN(CC(CC)CCCC)CC(C)(N)C1 (centres unmarked) [hexetidine, 5-amino-1,3 bis(2-ethylhexyl)-5-methyl-hexahydropyrimidine]
- solubility in water (in words) ([1]; 10 mg hexetidine, alone or as 43 mg of complex, in 10 ml of water): virtually insoluble in water; also recorded: did not dissolve
- solution of hexetidine in known in the art compositions ([2]; about 9.5% v/v ethanol and about 0.7% v/v of surfactant (e.g., TWEEN 80)): ~0.1 % w/v
- solubility in ethanol ([2]; ethanol): soluble in ethanol
- solubility in water ([2]; water): practically insoluble in water
